From patent publication US20230117680A1, “CYCLOPHILIN D INHIBITORS AND USES THEREOF” (The Broad Institute, Inc., priority 2019, published 2023)

Tests used:
PPWD1 = target: T1, PPWD1 (Homo sapiens, UniProt Q96BP3); assay: chymotrypsin coupled PPIase assay, PPWD1 inhibition; type: biochemical; settings: result in words
T1 sequence (Q96BP3 1-646): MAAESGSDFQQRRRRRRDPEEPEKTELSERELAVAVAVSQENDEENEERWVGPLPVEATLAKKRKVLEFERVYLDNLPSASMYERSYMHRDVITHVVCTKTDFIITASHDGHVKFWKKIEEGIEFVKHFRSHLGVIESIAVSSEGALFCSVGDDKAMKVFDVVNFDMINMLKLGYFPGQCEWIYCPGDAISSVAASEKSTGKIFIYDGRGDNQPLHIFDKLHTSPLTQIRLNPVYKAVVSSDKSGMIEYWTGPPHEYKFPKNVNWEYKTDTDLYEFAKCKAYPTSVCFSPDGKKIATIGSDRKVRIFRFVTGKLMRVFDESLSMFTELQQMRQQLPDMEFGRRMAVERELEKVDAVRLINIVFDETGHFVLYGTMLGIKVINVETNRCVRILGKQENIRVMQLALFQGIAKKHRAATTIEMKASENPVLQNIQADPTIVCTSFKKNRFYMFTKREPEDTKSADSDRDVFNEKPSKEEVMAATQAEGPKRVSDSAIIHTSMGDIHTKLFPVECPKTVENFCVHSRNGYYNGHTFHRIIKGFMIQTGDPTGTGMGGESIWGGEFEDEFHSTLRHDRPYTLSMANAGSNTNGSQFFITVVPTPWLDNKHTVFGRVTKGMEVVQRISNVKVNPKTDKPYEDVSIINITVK
Experimental: Following the synthesis of the indicated library members, in vitro inhibition (IC50) assays of these hits were conducted to obtain IC50 inhibitory data. For the IC50 assays, a chymotrypsin coupled PPIase assay using Suc-AAPF-AMC as the peptide substrate was used, whereby isomerization of a peptide substrate Suc-AAPF-AMC from the cis to trans conformation allowed for proteolysis via excess a-chymotrypsin, releasing the C-terminal coumarin fluorophore. […] Other non-inhibitor library members were also checked for binding via SPR, but produced the same profile as the prolyl isomerase assay.
Subsequently, to determine if the compounds could both access the S2 pocket and display CypD specificity, JOMBtrans and compound 49 were screened against the 10 other cyclophilins with reported prolyl isomerase activity. […] Co-crystal structures of JOMBtrans and 49 were solved with CypD. […] Three further H-bonds with the macrocycle's backbone and CypD were observed along with a cation-n interaction. […] The benzyl group on the piperidine ring altered the conformation of the macrocycle to open up two new hydrogen bonding interactions with CypD. […] This improvement in specificity compared to JOMBtrans signified that more CypD specific compounds can be garnered by derivatization into the S2 pocket.

[1] = system: 10 other cyclophilins with reported prolyl isomerase activity; assay: cyclophilin specificity screen: CypD against the other cyclophilins; type: biochemical; settings: result in words
Text: The selectivity of a compound described herein in inhibiting the activity of a first cyclophilin (e.g., CypD) over a second cyclophilin may be measured by the quotient of the IC50 value of the compound in inhibiting the activity of the second cyclophilin over the IC50 value of the compound in inhibiting the activity of the first cyclophilin. The selectivity of a compound described herein in modulating the activity of a first cyclophilin over a second cyclophilin may also be measured by the quotient of the Kd value of an adduct of the compound and the second cyclophilin over the Kd value of an adduct of the compound and the first cyclophilin (e.g., CypD). […] In certain embodiments, selectivity for inhibiting a first cyclophilin over other cyclophilins is measured by Surface Plasmon Resonance (SPR) assays as disclosed in the Examples.
Following the synthesis of the indicated library members, in vitro inhibition (IC50) assays of these hits were conducted to obtain IC50 inhibitory data. For the IC50 assays, a chymotrypsin coupled PPIase assay using Suc-AAPF-AMC as the peptide substrate was used, whereby isomerization of a peptide substrate Suc-AAPF-AMC from the cis to trans conformation allowed for proteolysis via excess a-chymotrypsin, releasing the C-terminal coumarin fluorophore.
Subsequently, to determine if the compounds could both access the S2 pocket and display CypD specificity, JOMBtrans and compound 49 were screened against the 10 other cyclophilins with reported prolyl isomerase activity. […] Co-crystal structures of JOMBtrans and 49 were solved with CypD.

SMILES: NCCOCCNC(=O)[C@@H]1CCNC(=O)/C=C/C(=O)N2CCC[C@H](C2)C(=O)N[C@@H](Cc2ccc(C(=O)c3ccccc3)cc2)C(=O)NCc2ccccc2CC(=O)N1 [compound 27]
- inhibition of PPWD1 (PPWD1): Almost complete ablation of inhibition profiles
- specificity / selectivity profile for CypD (in words) [1]: improvement in specificity for CypD
